# Structures can show the parent of a compound that is named as a salt.
# Molecular target: T1, human recombinant HPK1 (Homo sapiens, UniProt Q92918)
# T1 construct: purchased BPS Bioscience
# Assay: Inhibitory activity against human recombinant HPK1 (TR-FRET)
# Type: biochemical
# Conditions: ULight-p70S6K peptide, ATP at Km, room temperature, 1 hour, 0.32 to 1000 nM compound
# Summary of the method: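 Recombinant human HPK1 with ULight-p70S6K peptide and ATP at Km, 1 h at room temperature in HEPES pH 7.4 buffer with Mg2+, Mn2+, EGTA, DTT; compounds 0.32–1000 nM final. EDTA stop, Eu-anti-phosphopeptide TR-FRET read (665 nm); IC50 from % inhibition versus DMSO, binned A–D at 10, 50, 100 nM.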
# T1 sequence (Q92918 whole entry): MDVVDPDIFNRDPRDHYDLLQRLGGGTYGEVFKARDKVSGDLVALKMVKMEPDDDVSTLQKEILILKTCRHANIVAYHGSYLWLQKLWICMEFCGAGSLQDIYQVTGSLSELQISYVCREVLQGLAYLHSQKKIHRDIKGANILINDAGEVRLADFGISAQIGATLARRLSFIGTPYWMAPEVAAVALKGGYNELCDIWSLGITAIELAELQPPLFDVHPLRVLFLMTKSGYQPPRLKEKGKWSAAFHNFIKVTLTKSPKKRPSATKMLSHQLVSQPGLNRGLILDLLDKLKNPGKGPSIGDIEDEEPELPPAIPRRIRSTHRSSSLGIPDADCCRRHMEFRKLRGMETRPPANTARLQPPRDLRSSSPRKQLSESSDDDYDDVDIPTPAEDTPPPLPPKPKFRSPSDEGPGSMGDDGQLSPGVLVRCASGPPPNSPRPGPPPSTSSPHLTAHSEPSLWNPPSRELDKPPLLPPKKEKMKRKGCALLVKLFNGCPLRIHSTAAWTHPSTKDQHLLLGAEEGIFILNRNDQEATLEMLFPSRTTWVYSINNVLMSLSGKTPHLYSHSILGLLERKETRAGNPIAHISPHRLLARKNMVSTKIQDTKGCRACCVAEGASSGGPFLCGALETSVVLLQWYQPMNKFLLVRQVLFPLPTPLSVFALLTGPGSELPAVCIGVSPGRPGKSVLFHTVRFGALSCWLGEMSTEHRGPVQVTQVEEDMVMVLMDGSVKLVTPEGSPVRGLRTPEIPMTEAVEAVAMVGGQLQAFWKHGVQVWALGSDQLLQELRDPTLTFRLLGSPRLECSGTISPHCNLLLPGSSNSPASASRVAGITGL
row,Compound,IC50 [nM]
1,"COc1cccc(F)c1-c1nccc(Nc2cc(N3CCC[C@H](N)C3)c(-c3cnn(CC(C)(C)OC)c3)cn2)n1 [Example 229, (S)-N-(4-(3-aminopiperidin-1-yl)-5-(1-(2-methoxy-2-methylpropyl)-1H-pyrazol-4-yl)pyridin-2-yl)-2-(2-fluoro-6-methoxyphenyl)pyrimidin-4-amine]",≤ 10
2,"COc1cccc(F)c1-c1nccc(Nc2cc(N3C[C@@H](N)C[C@@H](C(F)(F)F)C3)c(-c3cnn(C(F)F)c3)cn2)n1 [Example 305, N-(4-((3S,5R)-3-amino-5-(trifluoromethyl)piperidin-1-yl)-5-(1-(difluoromethyl)-1H-pyrazol-4-yl)pyridin-2-yl)-2-(2-fluoro-6-methoxyphenyl)pyrimidin-4-amine hydrochloride]",≤ 10
3,"COc1cccc(F)c1-c1nccc(Nc2cc(N3CCC[C@H](N)C3)c(-c3ccc4c(c3)COC(=O)N4)cn2)n1 [Example 258, (S)-6-(4-(3-aminopiperidin-1-yl)-6-((2-(2-fluoro-6-methoxyphenyl)pyrimidin-4-yl)amino)pyridin-3-yl)-1,4-dihydro-2H-benzo[d][1,3]oxazin-2-one hydrochloride]",≤ 10
4,"(S)-1-(6′-ethoxy-6-((2-(2-fluoro-6-methoxyphenyl)pyrimidin-4-yl)amino)-[3,3′-bipyridin]-4-yl)piperidin-3-ol [Example 56]",10 to 50
5,"COc1cccc(F)c1-c1nccc(Nc2cc(N3CCC[C@H](N)C3)c(-c3cnn(CC4CC(F)(F)C4)c3)cn2)n1 [Example 245, (S)-N-(4-(3-aminopiperidin-1-yl)-5-(1-((3,3-difluorocyclobutyl)methyl)-1H-pyrazol-4-yl)pyridin-2-yl)-2-(2-fluoro-6-methoxyphenyl)pyrimidin-4-amine hydrochloride]",≤ 10
6,"COc1ccc(F)c(F)c1-c1nccc(Nc2cc(N3CCC[C@H](O)C3)c(-c3cnn(C4CCOCC4)c3)cn2)n1 [Example 24, (S)-1-(2-((2-(2,3-difluoro-6-methoxyphenyl)pyrimidin-4-yl)amino)-5-(1-(tetrahydro-2H-pyran-4-yl)-1H-pyrazol-4-yl)pyridin-4-yl)piperidin-3-ol]",≤ 10
7,"COc1cccc(F)c1-c1nccc(Nc2cc(N3CCC4(CCNCC4)C3)c(-c3cnn(C4CCOCC4)c3)cn2)n1 [Example 93, N-(4-(2,8-diazaspiro[4.5]decan-2-yl)-5-(1-(tetrahydro-2H-pyran-4-yl)-1H-pyrazol-4-yl)pyridin-2-yl)-2-(2-fluoro-6-methoxyphenyl)pyrimidin-4-amine hydrochloride]",10 to 50
8,"COc1cc(F)cc(F)c1-c1nccc(Nc2cc(N3CCC[C@H](O)C3)c(C#Cc3cnn(C(F)F)c3)cn2)n1 [Example 217, (S)-1-(2-((2-(2,4-difluoro-6-methoxyphenyl)pyrimidin-4-yl)amino)-5-((1-(difluoromethyl)-1H-pyrazol-4-yl)ethynyl)pyridin-4-yl)piperidin-3-ol]",≤ 10
9,"COc1cccc(F)c1-c1nccc(Nc2cc(N3CCCC(CF)C3)c(-c3cnn(C4CCOCC4)c3)cn2)n1 (centres unmarked) [Example 85, 2-(2-fluoro-6-methoxyphenyl)-N-(4-(3-(fluoromethyl)piperidin-1-yl)-5-(1-(tetrahydro-2H-pyran-4-yl)-1H-pyrazol-4-yl)pyridin-2-yl)pyrimidin-4-amine]",≤ 10
10,"COc1cccc(F)c1-c1nccc(Nc2cc(N3CCC[C@H](O)C3)c(-c3ccc(OC4CCN(C)CC4)cn3)cn2)n1 [Example 81, (S)-1-(6′-((2-(2-fluoro-6-methoxyphenyl)pyrimidin-4-yl)amino)-5-((1-methylpiperidin-4-yl)oxy)-[2,3′-bipyridin]-4′-yl)piperidin-3-ol]",> 100
11,"COc1cccc(F)c1-c1nccc(Nc2cc(N3CCC[C@H](N)C3)c(-c3ccc(OC(F)(F)F)c(C)c3)cn2)n1 [Example 281, (S)-N-(4-(3-aminopiperidin-1-yl)-5-(3-methyl-4-(trifluoromethoxy)phenyl)pyridin-2-yl)-2-(2-fluoro-6-methoxyphenyl)pyrimidin-4-amine hydrochloride]",≤ 10
12,"COc1cc(F)cc(F)c1-c1nc(Nc2cc(N3CCC[C@H](N)C3)c(-c3cnn(C4CCOCC4)c3)cn2)ccc1C#N [Example 309, 6-((4-((S)-3-aminopiperidin-1-yl)-5-(1-(tetrahydro-2H-pyran-4-yl)-1H-pyrazol-4-yl)pyridin-2-yl)amino)-2-(2,4-difluoro-6-methoxyphenyl)nicotinonitrile hydrochloride]",≤ 10
13,"N[C@H]1CCCN(c2cc(Nc3ccnc(-c4cc5nccnc5cc4F)n3)ncc2-c2ccc(C3CCOCC3)nc2)C1 [Example 99, (S)-4-(3-aminopiperidin-1-yl)-N-(2-(7-fluoroquinoxalin-6-yl)pyrimidin-4-yl)-6′-(tetrahydro-2H-pyran-4-yl)-[3,3′-bipyridin]-6-amine hydrochloride]",10 to 50
14,"COc1cccc(F)c1-c1nc(Nc2cc(N3CCC[C@H](O)C3)c(-c3cnn(CC(F)F)c3)cn2)ccc1N [Example 179, (3S)-1-(2-((5-amino-6-(2-fluoro-6-methoxyphenyl)pyridin-2-yl)amino)-5-(1-(2,2-difluoroethyl)-1H-pyrazol-4-yl)pyridin-4-yl)piperidin-3-ol]",≤ 10

# Now from value to compound:
row,IC50 [nM],Compound
1,≤ 10,"COc1cccc(F)c1-c1nccc(Nc2cc(N3CCC[C@H](N)C3)c(-c3ccc(C(=O)N[C@H]4CC[C@H](O)CC4)cc3)cn2)n1 [Example 289, 4-(4-((S)-3-aminopiperidin-1-yl)-6-((2-(2-fluoro-6-methoxyphenyl)pyrimidin-4-yl)amino)pyridin-3-yl)-N-((1r,4S)-4-hydroxycyclohexyl)benzamide hydrochloride]"
2,≤ 10,"CN[C@H]1CCN(c2cc(Nc3ccnc(-c4c(F)cccc4OC)n3)ncc2-c2cnn(C3CCOCC3)c2)C1 [Example 124, (S)-2-(2-fluoro-6-methoxyphenyl)-N-(4-(3-(methylamino)pyrrolidin-1-yl)-5-(1-(tetrahydro-2H-pyran-4-yl)-1H-pyrazol-4-yl)pyridin-2-yl)pyrimidin-4-amine]"
3,≤ 10,"COc1cc(F)cc(F)c1-c1nc(Nc2cc(N3CC[C@@H](C)[C@H](N)C3)c(-c3cnn(C(F)F)c3)cn2)ccc1N [Example 215, N^2-(4-((3S,4R)-3-amino-4-methylpiperidin-1-yl)-5-(1-(difluoromethyl)-1H-pyrazol-4-yl)pyridin-2-yl)-6-(2,4-difluoro-6-methoxyphenyl)pyridin-2,5-diamine hydrochloride]"
4,≤ 10,"COc1cccc(F)c1-c1nc(Nc2cc(N3CCC[C@H](O)C3)c(-c3cnn(C4CCN(C)CC4)c3)cn2)ccc1C#N [Example 325, 2-(2-fluoro-6-methoxyphenyl)-6-((4-((S)-3-hydroxypiperidin-1-yl)-5-(1-(1-methylpiperidin-4-yl)-1H-pyrazol-4-yl)pyridin-2-yl)amino)nicotinonitrile]"
5,≤ 10,"COc1cccc(F)c1-c1nccc(Nc2cc(N3CCC[C@H](N)C3)c(-c3ccc(C4CCN(C)CC4)nc3)cn2)n1 [Example 83, (S)-4-(3-aminopiperidin-1-yl)-N-(2-(2-fluoro-6-methoxyphenyl)pyrimidin-4-yl)-6′-(1-methylpiperidin-4-yl)-[3,3′-bipyridin]-6-amine hydrochloride]"
6,≤ 10,"COc1cccc(F)c1-c1nc(Nc2cc(N3CCC[C@H](O)C3)c(C#CC3CCOCC3)cn2)ccc1C(=O)O [Example 139, 2-(2-fluoro-6-methoxyphenyl)-6-((4-((S)-3-hydroxypiperidin-1-yl)-5-((tetrahydro-2H-pyran-4-yl)ethynyl)pyridin-2-yl)amino)nicotinic acid]"
7,≤ 10,"COc1cccc(F)c1-c1nc(Nc2cc(N3CC[C@@H](F)[C@H](N)C3)c(-c3cnn(C(F)F)c3)cn2)ccc1C#N [Example 321, 6-((4-((3R,4R)-3-amino-4-fluoropiperidin-1-yl)-5-(1-(difluoromethyl)-1H-pyrazol-4-yl)pyridin-2-yl)amino)-2-(2-fluoro-6-methoxyphenyl)nicotinonitrile hydrochloride]"
8,≤ 10,"COc1cccc(F)c1-c1nc(Nc2cc(N3CCC[C@H](O)C3)c(-c3cnn(CC(F)F)c3)cn2)ccc1C(N)=O [Example 160, 6-((5-(1-(2,2-difluoroethyl)-1H-pyrazol-4-yl)-4-((S)-3-hydroxypiperidin-1-yl)pyridin-2-yl)amino)-2-(2-fluoro-6-methoxyphenyl)nicotinamide]"
9,≤ 10,"COc1cccc(F)c1-c1nc(Nc2cc(N3CCC[C@H](N)C3)c(-c3cnn(C(F)(F)F)c3)cn2)ccc1N [Example 173, N^2-(4-((S)-3-aminopiperidin-1-yl)-5-(1-(trifluoromethyl)-1H-pyrazol-4-yl)pyridin-2-yl)-6-(2-fluoro-6-methoxyphenyl)pyridin-2,5-diamine hydrochloride]"
10,≤ 10,"COc1cccc(F)c1-c1nccc(Nc2cc(N3CC[C@@H](N)[C@H](O)C3)c(-c3cnn(C(F)F)c3)cn2)n1 [Example 295, (3R,4R)-4-amino-1-(5-(1-(difluoromethyl)-1H-pyrazol-4-yl)-2-((2-(2-fluoro-6-methoxyphenyl)pyrimidin-4-yl)amino)pyridin-4-yl)piperidin-3-ol]"
11,≤ 10,"COc1cccc(F)c1-c1nccc(Nc2cc(N3C[C@@H](N)C[C@@H](F)C3)c(-c3cnn(C(F)F)c3)cn2)n1 [Example 303, N-(4-((3S,5R)-3-amino-5-fluoropiperidin-1-yl)-5-(1-(difluoromethyl)-1H-pyrazol-4-yl)pyridin-2-yl)-2-(2-fluoro-6-methoxyphenyl)pyrimidin-4-amine hydrochloride]"
12,≤ 10,"COc1cc(CO)cc(F)c1-c1nccc(Nc2cc(N3CCC[C@H](N)C3)c(-c3cnn(CC(F)(F)F)c3)cn2)n1 [Example 102, (S)-(4-(4-((4-(3-aminopiperidin-1-yl)-5-(1-(2,2,2-trifluoroethyl)-1H-pyrazol-4-yl)pyridin-2-yl)amino)pyrimidin-2-yl)-3-fluoro-5-methoxyphenyl)methanol hydrochloride]"

# Source: US20260347338A1, “PYRIMIDINE/PYRIDINE DERIVATIVES OR SALTS THEREOF AND PHARMACEUTICAL COMPOSITIONS COMPRISING THE SAME” (YUHAN CORPORATION, priority 2023, published 2026)
